In US8906904B2, “Alkoxy pyrazoles as soluble guanylate cyclase activators” (Boehringer Ingelheim International GmbH, priority 2012, dated 2014):
Converted amounts (≈) assume the structure as drawn.

Assays:
[1] = biological target: T1, human soluble guanylate cyclase alpha 1 and beta 1 subunits (sGC) (Homo sapiens, UniProt Q02108+Q02153); assay: sGC cellular activator assay (cGMP, HTRF); assay type: cell-based; details: CHO cells stably expressing human sGC alpha 1/beta 1, preincubated with 40 microM ODQ; cGMP readout; assay run with and without 50% human serum, Table 2 does not say which
T1 construct: expressed in transfected cells; host or cells: Chinese hamster ovary (CHO) cells, stably transfected
T1 sequence (Q02108 1-690): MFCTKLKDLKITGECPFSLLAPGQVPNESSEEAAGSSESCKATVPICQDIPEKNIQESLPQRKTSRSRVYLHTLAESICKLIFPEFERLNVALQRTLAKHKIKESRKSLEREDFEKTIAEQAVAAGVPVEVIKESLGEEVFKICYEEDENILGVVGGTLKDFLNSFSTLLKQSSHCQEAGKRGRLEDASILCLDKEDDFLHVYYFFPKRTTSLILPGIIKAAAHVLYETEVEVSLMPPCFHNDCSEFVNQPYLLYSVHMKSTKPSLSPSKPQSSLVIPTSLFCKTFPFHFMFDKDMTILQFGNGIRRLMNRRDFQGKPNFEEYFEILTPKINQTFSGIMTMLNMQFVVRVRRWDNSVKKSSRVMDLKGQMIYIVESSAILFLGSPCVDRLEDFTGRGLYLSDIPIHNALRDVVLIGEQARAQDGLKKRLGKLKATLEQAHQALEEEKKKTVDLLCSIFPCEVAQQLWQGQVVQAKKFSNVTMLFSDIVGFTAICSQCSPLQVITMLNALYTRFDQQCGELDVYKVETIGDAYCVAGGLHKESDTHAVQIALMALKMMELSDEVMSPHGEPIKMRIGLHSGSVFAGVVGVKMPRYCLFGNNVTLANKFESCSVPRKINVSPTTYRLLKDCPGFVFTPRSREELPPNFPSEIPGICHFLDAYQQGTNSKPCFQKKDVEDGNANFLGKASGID
T1 sequence (Q02153 1-619): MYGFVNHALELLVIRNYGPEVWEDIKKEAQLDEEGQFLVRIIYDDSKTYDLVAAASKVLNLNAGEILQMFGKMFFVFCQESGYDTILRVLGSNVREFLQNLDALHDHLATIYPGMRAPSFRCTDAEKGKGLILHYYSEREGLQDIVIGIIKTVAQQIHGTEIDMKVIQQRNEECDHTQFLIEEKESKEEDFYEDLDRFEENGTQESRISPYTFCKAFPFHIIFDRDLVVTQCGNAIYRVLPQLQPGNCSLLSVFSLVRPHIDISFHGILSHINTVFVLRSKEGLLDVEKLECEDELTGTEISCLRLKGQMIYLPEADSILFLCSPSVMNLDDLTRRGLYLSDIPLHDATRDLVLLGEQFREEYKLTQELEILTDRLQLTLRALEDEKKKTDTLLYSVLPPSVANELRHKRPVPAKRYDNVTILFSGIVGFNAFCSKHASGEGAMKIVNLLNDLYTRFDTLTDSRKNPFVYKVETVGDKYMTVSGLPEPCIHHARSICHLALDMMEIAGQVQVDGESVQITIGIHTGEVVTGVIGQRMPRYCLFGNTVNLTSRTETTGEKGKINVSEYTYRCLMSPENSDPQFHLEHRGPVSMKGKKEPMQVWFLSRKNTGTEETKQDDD
Protocol: The sGC cellular activator assay is performed in the presence and absence of 50% human serum (HS) using Chinese hamster ovary cells that have been stably transfected to express the human soluble guanylate cyclase alpha 1 and beta 1 subunits (sGC). Cells are preincubated with 40 microM 1H-[1,2,4]oxadiazolo[4,3-a]quinoxalin-1-one (ODQ), an sGC inhibitor, for one h in buffer containing 0.1% bovine serum albumin and 3-isobutyl-1-methylxanthine (IBMX). Concentration response curves are prepared for test compounds in DMSO. An intermediate dilution of the compounds is performed in either buffer containing IBMX or type AB HS containing IBMX. Diluted compounds are added to cells and they are incubated at room temperature for thirty min. cGMP is measured using a CisBio homogeneous time resolved fluorescence kit and the EC50 is calculated for each compound.
Representative compounds of the present invention were tested for activity the above assay. Preferred compounds have an EC50 of <1,000 nM in the above assay and more preferred compounds have an EC50<200 nM.

[2] = Assessment of solubility (McIlvaine buffers, 24 h shake, UPLC-UV); assay type: physicochemical; details: kinetic from dmso stock
Protocol: Solubility is measured by the following method.
100 uL, 10 mM DMSO stock solution of each compound is prepared in a 96 well plate format. The experiment is done in single determination at 3 pH values (2.2, 4.5 and 6.8). For each pH and one reference, 40 uL of each compound is needed.
McIlvaine pH 2.2: To 2.076 g citric acid monohydrate and 0.043 g Na2HPO4×2H2O add 100 ml deionized water
McIlvaine pH 4.5: To 1.166 g citric acid monohydrate and 1.585 g Na2HPO4×2H2O add 100 ml deionized water
McIlvaine pH 6.8: To 0.476 g citric acid monohydrate and 2.753 g Na2HPO4×2H2O add 100 ml deionized water
With a suitable liquid handling device (Multipette® or a liquid handler) 390 uL of each buffer solution and 10 uL of compound is added to each well of a 96 deep well plate. The plates are covered firmly and shaken for 24 h on an over head shaker (at 54 RPM) at room temperature. The DMSO content in the final buffer is 2.5% v/v.
After 24 h the plates are centrifuged to remove droplets on the lid before opening (for ˜5 min at 2500 RPM).
The filtration is done under vacuum with Millipore 96 well filter plate. Filtrate is collected in a deep well plate and transferred to a suitable plate for UPLC analysis.
The reference plate is prepared by adding 10 uL of compound to 390 uL of 50:50 acetonitrile/water in a 96 deep well plate and transferred to a suitable plate for UPLC analysis. Wells are checked visually for precipitation, any presence noted under comments in reported results.
The samples are measured with UPLC-UV using the chromatographic method described below.
Waters Empower®2 software is used for generating Sample Sets (according to the plate layout), Sample Set Methods and Instrument Methods.
One Sample Set comprises the methods for three 96 well plates (one reference plate and two sample plates, and includes one Sample Set Method and one Instrument Method).
3. Data Processing and Analysis
The UV chromatograms collected at 254 nm are integrated and processed.
It is assumed that the compound is completely dissolved in the reference solution (50:50 acetonitrile/water)

Row | EC50 [1] | solubility at 24 h ([2]; pH 2.2, aqueous buffer) | solubility at 24 h ([2]; pH 4.5, aqueous buffer) | solubility at 24 h ([2]; pH 6.8, aqueous buffer) | SMILES
1 | 110 nM | 96 µg/mL (≈ 158 µM) | 78 µg/mL (≈ 128 µM) | 81 µg/mL (≈ 133 µM) | COc1c(C(=O)O)cnn1-c1cccc(-c2cccc(C)c2OCc2ccc3c(c2)CCN([C@H]2CC[C@@]4(CCCO4)CC2)C3)n1 [Compound 103]
2 | 21 nM | 130 µg/mL (≈ 228 µM) | 100 µg/mL (≈ 175 µM) | 110 µg/mL (≈ 193 µM) | COc1c(C(=O)O)cnn1-c1cccc(-c2cccc(C)c2OCc2ccc3c(c2)OCCN(C2CCOCC2)C3)n1 [Compound 130]
3 | 16 nM | 120 µg/mL (≈ 211 µM) | 99 µg/mL (≈ 174 µM) | 98 µg/mL (≈ 172 µM) | COc1c(C(=O)O)cnn1-c1cccc(-c2cccc(C)c2OCc2cc(C)c3c(c2)CCN(C2CCOCC2)C3)n1 [Compound 171]
4 | 6.6 nM | 110 µg/mL (≈ 177 µM) | 51 µg/mL (≈ 81.9 µM) | 64 µg/mL (≈ 103 µM) | COc1c(C(=O)O)cnn1-c1cccc(-c2cccc(C)c2OCc2ccc3c(c2C(F)(F)F)CCN(C2CCOCC2)C3)n1 [Compound 166]
5 | 28 nM | 85 µg/mL (≈ 142 µM) | 36 µg/mL (≈ 60.3 µM) | 57 µg/mL (≈ 95.5 µM) | CCOc1c(C(=O)O)cnn1-c1cccc(-c2cccc(C)c2OCc2ccc3c(c2CC)CCN(C2CCOCC2)C3)n1 [Compound 154]
6 | 46 nM | 110 µg/mL (≈ 180 µM) | 94 µg/mL (≈ 154 µM) | 100 µg/mL (≈ 164 µM) | Cc1cccc(-c2cccc(-n3ncc(C(=O)O)c3OCC(C)C)n2)c1OCc1ccc2c(c1C)CCN(C1CCOCC1)C2 [Compound 134]
7 | 28 nM | 120 µg/mL (≈ 200 µM) | 96 µg/mL (≈ 160 µM) | 95 µg/mL (≈ 159 µM) | CCOc1c(C(=O)O)cnn1-c1cccc(-c2cccc(C)c2OCc2ccc3c(c2C)CCN(C[C@H]2COCCO2)C3)n1 [Compound 170]
8 | 29 nM | 102 µg/mL (≈ 171 µM) | 82 µg/mL (≈ 137 µM) | 85 µg/mL (≈ 142 µM) | Cc1cccc(-c2cccc(-n3ncc(C(=O)O)c3OC(C)C)n2)c1OCc1ccc2c(c1C)CCN([C@H]1CCCOC1)C2 [Compound 117]
9 | 160 nM | 160 µg/mL (≈ 288 µM) | 150 µg/mL (≈ 270 µM) | 160 µg/mL (≈ 288 µM) | COc1c(C(=O)O)cnn1-c1cccc(-c2cccc(C)c2OCc2cc3c(cc2C)CN(C2CCOCC2)C3)n1 [Compound 143]
10 | 31 nM | 110 µg/mL (≈ 184 µM) | 93 µg/mL (≈ 156 µM) | 97 µg/mL (≈ 163 µM) | Cc1cccc(-c2cccc(-n3ncc(C(=O)O)c3OC(C)C)n2)c1OCc1ccc2c(c1C)CCN(C1CCOCC1)C2 [Compound 104]
11 | 27 nM | 88 µg/mL (≈ 159 µM) | 69 µg/mL (≈ 124 µM) | 73 µg/mL (≈ 132 µM) | COc1c(C(=O)O)cnn1-c1cccc(-c2cccc(C)c2OCc2ccc3c(c2C)CCN([C@@H]2CCOC2)C3)n1 [Compound 106]
12 | 26 nM | 110 µg/mL (≈ 198 µM) | 90 µg/mL (≈ 162 µM) | 92 µg/mL (≈ 166 µM) | COc1c(C(=O)O)cnn1-c1cccc(-c2cccc(C)c2OCc2ccc3c(c2)CCN(CC2(C)COC2)C3)n1 [Compound 12]
13 | 17 nM | 130 µg/mL (≈ 229 µM) | 110 µg/mL (≈ 193 µM) | 110 µg/mL (≈ 193 µM) | COc1c(C(=O)O)cnn1-c1cccc(-c2cccc(C)c2OCc2ccc3c(c2C)CCN([C@H]2CCCOC2)C3)n1 [Compound 141]
14 | 13 nM | 130 µg/mL (≈ 223 µM) | 98 µg/mL (≈ 168 µM) | 97 µg/mL (≈ 166 µM) | CCOc1c(C(=O)O)cnn1-c1cccc(-c2cccc(C)c2OCc2cc(C)c3c(c2)CCN(C2CCCOC2)C3)n1 (stereo not shown) [Compound 173]
15 | 59 nM | 43 µg/mL (≈ 70.2 µM) | 92 µg/mL (≈ 150 µM) | 93 µg/mL (≈ 152 µM) | CCOc1c(C(=O)O)cnn1-c1cccc(-c2cccc(C)c2OCc2ccc3c(c2C)CCN(C[C@H]2COC(C)(C)O2)C3)n1 [Compound 179]
16 | 110 nM | 110 µg/mL (≈ 198 µM) | 78 µg/mL (≈ 141 µM) | 94 µg/mL (≈ 169 µM) | CCOc1c(C(=O)O)cnn1-c1cccc(-c2cccc(C)c2OCc2ccc3c(c2)CCN([C@@H]2CCOC2)C3)n1 [Compound 112]
17 | 67 nM | 91 µg/mL (≈ 153 µM) | 72 µg/mL (≈ 121 µM) | 77 µg/mL (≈ 129 µM) | CCOc1c(C(=O)O)cnn1-c1cccc(-c2cccc(C)c2OCc2ccc3c(c2)CCN(CC2CC(=O)N(C)C2)C3)n1 (stereo not shown) [Compound 97, 5-ethoxy-1-(6-{3-methyl-2-[2-(1-methyl-5-oxo-pyrrolidin-3-ylmethyl)-1,2,3,4-tetrahydro-isoquinolin-6-ylmethoxy]-phenyl}-pyridin-2-yl)-1H-pyrazole-4-carboxylic acid]
18 | 17 nM | 23 µg/mL (≈ 41.6 µM) | < 0.1 µg/mL | 80 µg/mL (≈ 145 µM) | COc1c(C(=O)O)cnn1-c1cccc(-c2cccc(C)c2OCc2ccc3c(c2)CCN(CC(F)(F)F)C3)n1 [Compound 11, 5-methoxy-1-(6-{3-methyl-2-[2-(2,2,2-trifluoro-ethyl)-1,2,3,4-tetrahydro-isoquinolin-6-ylmethoxy]-phenyl}-pyridin-2-yl)-1H-pyrazole-4-carboxylic acid]
19 | 40 nM | 120 µg/mL (≈ 206 µM) | 99 µg/mL (≈ 170 µM) | 100 µg/mL (≈ 172 µM) | CCOc1c(C(=O)O)cnn1-c1cccc(-c2cccc(C)c2OCc2ccc3c(c2C)CCN(C2CCOCC2)C3)n1 [Compound 114]
20 | 18 nM | 110 µg/mL (≈ 203 µM) | 82 µg/mL (≈ 152 µM) | 76 µg/mL (≈ 141 µM) | COc1c(C(=O)O)cnn1-c1cccc(-c2cccc(C)c2OCc2ccc3c(c2)CCN(CC(C)(C)C)C3)n1 [Compound 14]
21 | 58 nM | 96 µg/mL (≈ 169 µM) | 74 µg/mL (≈ 130 µM) | 78 µg/mL (≈ 137 µM) | CCOc1c(C(=O)O)cnn1-c1cccc(-c2cccc(C)c2OCc2ccc3c(c2C)CCN([C@@H]2CCOC2)C3)n1 [Compound 126]
22 | 32 nM | 110 µg/mL (≈ 201 µM) | 77 µg/mL (≈ 141 µM) | 91 µg/mL (≈ 166 µM) | COc1c(C(=O)O)cnn1-c1cccc(-c2cccc(Cl)c2OCc2ccc3c(c2)CCN(C2COC2)C3)n1 [Compound 7]
